The experiment concerns the target T1, Dihydroorotate dehydrogenase (quinone), mitochondrial (Plasmodium falciparum (isolate 3D7), UniProt Q08210).
T1 sequence (Q08210 whole entry): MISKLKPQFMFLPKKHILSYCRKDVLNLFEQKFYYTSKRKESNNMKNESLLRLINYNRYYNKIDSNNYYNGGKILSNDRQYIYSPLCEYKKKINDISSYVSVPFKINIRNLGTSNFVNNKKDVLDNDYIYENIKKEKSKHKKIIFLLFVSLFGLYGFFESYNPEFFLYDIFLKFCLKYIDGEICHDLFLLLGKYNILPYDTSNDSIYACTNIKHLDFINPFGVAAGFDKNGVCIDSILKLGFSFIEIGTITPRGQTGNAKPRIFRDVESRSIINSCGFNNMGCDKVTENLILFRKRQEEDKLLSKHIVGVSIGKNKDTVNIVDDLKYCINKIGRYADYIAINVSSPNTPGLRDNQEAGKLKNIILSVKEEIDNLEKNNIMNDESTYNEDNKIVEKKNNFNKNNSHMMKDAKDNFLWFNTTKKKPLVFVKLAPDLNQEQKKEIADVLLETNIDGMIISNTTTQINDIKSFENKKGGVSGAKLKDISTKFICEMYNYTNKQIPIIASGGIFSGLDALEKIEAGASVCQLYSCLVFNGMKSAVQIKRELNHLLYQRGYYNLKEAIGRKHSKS
Briefly: DHODH Inhibition Assay. The conditions noted are these: pH 8; 20 °C. The procedure: The assays were carried out by using a colorimetric DCIP method, which uses the colorimetric reagent 2, 6-dichlorophenolindophenol as the final electron acceptor. DCIP reduction is stoichiometrically equivalent to oxidation of dihydroorotate. Changes in absorbance were quantified on a plate reader and data were analyzed to measure the reduction of DCIP as a decrease in absorbance at 600 nm.

pIC50: −log10 of the molar value.

Drawing on BindingDB's records for doi:10.1021/jm8001026 (University of Texas At Dallas, 2008), this text covers IC50 for two molecules.

For the molecule `Cc1cc(Nc2ccc(C(N)=O)cc2)n2ncnc2n1` [4-({5-methyl-[1,2,4]triazolo[1,5-a]pyrimidin-7-yl}amino)benzamide], the pIC50 (as a rule, the negative decadic logarithm of the IC50, by convention in mol/L) was less than 3.70.
With `Cc1cc(Nc2ccccc2)n2ncnc2n1` [JMC521864 Compund DSM12], the pIC50 was less than 4.00.
